Data published in patent US20170252367A1, “PHARMACEUTICAL COMPOSITIONS AND METHODS RELATING TO INHIBITING FIBROUS ADHESIONS OR INFLAMMATORY DISEASE USING LOW SULPHATE FUCANS” (ARC Medical Devices, Inc., priority 2004, published 2017).
Counter-ions that a name gives are not always drawn.

Tested on: fibrous adhesions between the caecum and the sidewall
Experiment: Rat caecal-sidewall surgical adhesion model, drug loaded hyaluronic acid film (Example 1)
Assay type: in vivo
Conditions: for inhibition of all adhesions (zero on the Total Adhesion Value scale) in at least one test animal: agent administered to the cecal-sidewall site
Source text: In one embodiment, the efficacy of the given drug or drug combination can be assessed as a reduction of the average Total Adhesion Value (strength×area; “TAV”) of the drug or combination versus a given standard, for example a drug-loaded sodium hyaluronate film versus a sham or a sodium hyaluronate film alone in the rat cecal-sidewall model for surgical fibrous adhesions.
The rat caecal sidewall model of surgical adhesions was used to investigate the effect of administration of each agent discussed herein (hereafter referred to as the drug) for the prevention of post-surgical type of fibrous adhesions. In this model, rats were divided into groups of 4. After surgical trauma, the rats were either untreated, treated with crosslinked hyaluronic acid (HA) film, or crosslinked HA film containing drug at the following concentrations in the film (% w/w):
Animal Studies. […] Only animals that appeared grossly normal (i.e., showing a clean unruffled coat, bright clear eyes and an active posture) were used in the study. Animals were randomly assigned to treatment groups, weighed and anesthetized with isoflurane gas. The abdomen was shaved and cleaned with a skin-antibacterial cleanser (Steri-Stat 2%) and wiped with a chlorohexane soaked gauze. A nick was made in one of the tail veins to elicit a small amount of blood (<100 mL). A white blood cell count was performed on this blood sample. An antibiotic (40,000 IU/kg of depopenicillin) was injected into the right thigh and an analgesic (0.01 mg/kg of buprenorphine) was injected into the left thigh of each rat. A 4 cm incision was made in the skin beginning approximately 2 cm caudal to the linea alba while the muscle was tended with forceps. […] Scraping was in the opposite direction to which the blade was pointing. The scraped caecum was wrapped in saline-soaked gauze. Doynes were used to separate the peritoneal wall from the skin, and the peritoneal wall was inverted using the doynes to expose the inside of the wall. A rectangular injury roughly 1.2 cm by 1.8 cm was made by shallow incisions to the peritoneal wall. The top membrane and a layer of muscle tissue was removed using forceps. The caecum was stitched to the four corners of the rectangle using a 5-0 suture, and without tying off the top two stitches. A piece of film was placed onto the abraded rectangle and then the top two stitches were tied firmly. In the case of the untreated control group, no film was placed over the abraded site. The exposed organs were replaced in the abdomen in such a way as to prevent torsional stress on the intestines. […] A collar was placed around the neck of the animal to prevent it from interfering with the stitches. The rat was placed in a clean cage and warmed with a heating lamp until consciousness was regained.

Row | SMILES | reduction in adhesion score versus control, one-tailed Student's t-test (p<0.05) (5% w/w in HA film) | inhibition of all adhesions (zero on the Total Adhesion Value scale) in at least one test animal | reduction in adhesion score versus control, one-tailed Student's t-test (p<0.05) (2% w/w in HA film)
1 | CC[C@H]1OC(=O)[C@H](C)[C@@H](O[C@H]2C[C@@](C)(OC)[C@@H](O)[C@H](C)O2)[C@H](C)[C@@H](O[C@@H]2O[C@H](C)C[C@H](N(C)C)[C@H]2O)[C@](C)(O)C[C@@H](C)C(=O)[C@H](C)[C@@H](O)[C@]1(C)O [erythromycin, Erythromycin] | statistically significant |  | 
2 | CCOC(=O)[C@H](CCc1ccccc1)N[C@@H](C)C(=O)N1CCC[C@H]1C(=O)O [enalapril maleate, Enalapril Maleate] | statistically significant |  | 
3 | CN(Cc1cnc2nc(N)nc(N)c2n1)c1ccc(C(=O)N[C@@H](CCC(=O)O)C(=O)O)cc1 [methotrexate, Methotrexate] |  | completely inhibited fibrous adhesions | 
4 | CC(=O)O[C@@]12CO[C@@H]1C[C@H](O)[C@@]1(C)C(=O)[C@H](O)C3=C(C)[C@@H](OC(=O)[C@H](O)[C@@H](NC(=O)OC(C)(C)C)c4ccccc4)C[C@@](O)([C@@H](OC(=O)c4ccccc4)[C@H]21)C3(C)C [docetaxel, Docetaxel] |  | completely inhibited fibrous adhesions | 
5 | N.N.[Cl][Pt][Cl] [cisplatin, Cisplatin] |  | completely inhibited fibrous adhesions | statistically significant
